The results in this text go back to patent publication US20100075965A1, “PI3 KINASE INHIBITORS AND METHODS OF THEIR USE” (Novartis AG, priority 2006, published 2010).

One assay deals with A2780 cells. The experiment in a line: Viability assay in A2780 (Cell Titer Glo). Type of assay: cell-based, human. Particulars: Homo sapiens; A2780 cells; read-out: A2780 Cell prolif. EC50. The protocol: Cell viability was assessed with Cell Titer Glo assay, Promega. Cells were seeded in TC treated 96-well plates at a density of 1,000 (A2780 cells) per well in DMEM with 10% FBS, 1% Sodium Pyruvate, and 1% Penicillin Streptomycin for a minimum of 2 hrs prior to addition of compound. Test compounds were serially diluted (3 fold) in DMSO to 500× the final concentration. For each concentration of test compound, 2 μL (500×) aliquots of compound or 100% DMSO (control) were diluted in 500 μL of culture medium to 2× final concentration then diluted 1× on the cells. Cells were incubated for 72 hrs at 37° C., 5% CO2. After which Cell Titer Glo is added to determine viable cells, the assay was performed according to the manufacturer's instruction (Promega Corporation, Madison, Wis. USA). Each experimental condition was performed in duplicate. Raw data was imported in Abase and EC50s calculated with XL-fit data analysis software and are shown in Tables 1 and 2 in the column labeled “A2780 Cell prolif. EC50”.
(In ATP-based viability assays light output follows the ATP content of the culture.)

A further assay deals with PI3 K Alpha (Homo sapiens, UniProt P42336). The experiment in a line: PI3 kinase phosphorylation assays (homogenous solution phase, one step solid phase, ATP depletion/KinaseGlo). Particulars: read-out: PI3K Alpha IC50. The class given is biochemical. The protocol: Compounds to be tested are dissolved in DMSO and directly distributed into 384-well flashplates at 1.25 μL per well. To start the reaction, 20 μL of 6 nM PI3 kinase are added into each well followed by 20 μL of 400 nM ATP containing a trace of radiolabeled ATP and 900 nM 1-alpha-phosphatidylinositol (PI). The plates are briefly centrifuged to remove any air gap. The reaction is performed for 15 minutes and then stopped by the addition of 20 μL of 100 mM EDTA. The stopped reaction is incubated overnight at RT to allow the lipid substrate to bind by hydrophobic interaction to the surface of the flashplate. The liquid in the wells is then washed away, and the labeled substrate is detected with scintillation counting.
Chain of PI3 K Alpha (P42336 whole entry): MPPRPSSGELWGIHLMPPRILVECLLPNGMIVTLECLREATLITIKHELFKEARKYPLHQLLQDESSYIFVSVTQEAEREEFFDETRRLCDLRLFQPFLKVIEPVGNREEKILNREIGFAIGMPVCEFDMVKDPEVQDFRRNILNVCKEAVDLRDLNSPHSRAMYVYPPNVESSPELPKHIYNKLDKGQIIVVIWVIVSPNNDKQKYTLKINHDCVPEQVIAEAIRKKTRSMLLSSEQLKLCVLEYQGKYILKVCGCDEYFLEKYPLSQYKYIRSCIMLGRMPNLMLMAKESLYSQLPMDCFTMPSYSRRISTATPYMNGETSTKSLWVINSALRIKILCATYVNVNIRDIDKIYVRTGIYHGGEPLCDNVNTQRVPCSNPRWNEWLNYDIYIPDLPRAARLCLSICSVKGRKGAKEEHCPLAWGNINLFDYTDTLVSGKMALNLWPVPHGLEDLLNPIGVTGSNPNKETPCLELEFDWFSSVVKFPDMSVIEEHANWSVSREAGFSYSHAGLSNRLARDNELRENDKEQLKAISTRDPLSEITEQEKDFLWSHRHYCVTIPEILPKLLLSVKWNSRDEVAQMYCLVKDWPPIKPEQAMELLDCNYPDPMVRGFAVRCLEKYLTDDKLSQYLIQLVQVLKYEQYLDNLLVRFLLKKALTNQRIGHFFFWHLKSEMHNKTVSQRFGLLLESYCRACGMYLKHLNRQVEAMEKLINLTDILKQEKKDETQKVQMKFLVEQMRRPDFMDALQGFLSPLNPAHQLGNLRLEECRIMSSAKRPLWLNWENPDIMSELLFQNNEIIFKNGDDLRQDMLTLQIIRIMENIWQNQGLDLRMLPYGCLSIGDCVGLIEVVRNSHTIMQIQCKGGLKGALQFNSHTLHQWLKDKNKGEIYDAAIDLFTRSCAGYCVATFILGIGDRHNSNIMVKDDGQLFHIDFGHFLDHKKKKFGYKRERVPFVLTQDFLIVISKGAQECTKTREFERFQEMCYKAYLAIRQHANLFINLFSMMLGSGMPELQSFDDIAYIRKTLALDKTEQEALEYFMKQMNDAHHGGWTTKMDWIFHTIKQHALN
Chain of PI3 K Alpha (P27986 whole entry partner): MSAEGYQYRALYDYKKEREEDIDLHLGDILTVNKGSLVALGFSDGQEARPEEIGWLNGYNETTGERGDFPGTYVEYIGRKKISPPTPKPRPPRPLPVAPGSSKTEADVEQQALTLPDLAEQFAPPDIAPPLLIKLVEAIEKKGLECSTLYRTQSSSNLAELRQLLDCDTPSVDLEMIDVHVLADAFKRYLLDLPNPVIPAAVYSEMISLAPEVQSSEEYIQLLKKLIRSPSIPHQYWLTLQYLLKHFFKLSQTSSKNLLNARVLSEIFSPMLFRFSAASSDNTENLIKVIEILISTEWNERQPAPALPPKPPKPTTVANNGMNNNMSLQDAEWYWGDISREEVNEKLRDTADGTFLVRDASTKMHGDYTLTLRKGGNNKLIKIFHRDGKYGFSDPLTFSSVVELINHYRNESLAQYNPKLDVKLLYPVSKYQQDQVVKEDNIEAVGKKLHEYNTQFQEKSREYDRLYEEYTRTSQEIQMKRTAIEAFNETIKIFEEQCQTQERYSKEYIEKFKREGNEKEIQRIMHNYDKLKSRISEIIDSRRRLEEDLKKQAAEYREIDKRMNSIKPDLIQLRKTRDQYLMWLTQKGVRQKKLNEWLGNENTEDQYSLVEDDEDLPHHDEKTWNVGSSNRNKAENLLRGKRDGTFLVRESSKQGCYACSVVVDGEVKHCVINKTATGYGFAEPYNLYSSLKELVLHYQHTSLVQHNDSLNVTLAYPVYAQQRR
This method is similar to Assay 1 except that the lipid substrate (1-alpha-phosphatidylinositol (PI)) is first dissolved in a coating buffer and incubated on flashplate at room temperature overnight to allow the lipid substrate to bind by hydrophobic interaction to the surface of the flashplate. Unbound substrate is then washed away. On the day of assay, 20 μL of 6 nM PI3 kinase are added into each well followed by 20 μL of 400 nM ATP containing trace of radiolabeled ATP. Compounds are added together with enzyme and ATP to the lipid-coated plates. The plates are briefly centrifuged to remove any air gap. The reaction is performed for two to three hours. The reaction is stopped by addition of 20 μL of 100 mM EDTA or by immediate plate washing. Phosphorylated lipid substrate is detected by scintillation counting.
Compounds to be tested are dissolved in DMSO and directly distributed into a black 384-well plate at 1.25 μL per well. To start the reaction, 25 μL of 10 nM PI3 kinase and 5 μg/mL 1-alpha-phosphatidylinositol (PI) are added into each well followed by 25 μL of 2 μM ATP. The reaction is performed until approx 50% of the ATP is depleted, and then stopped by the addition of 25 μL of KinaseGlo solution. The stopped reaction is incubated for 5 minutes and the remaining ATP is then detected via luminescence.

pEC50, pIC50: −log10 of the molar value.

The term pEC50 denotes the negative decadic logarithm of the EC50, by convention in mol/L. One may read the pIC50 as the negative decadic logarithm of the IC50, by convention in mol/L.

Consider `CNC(=O)C1CCN(C(=O)Nc2cn3cc(-c4cnc(N)c(C(F)(F)F)c4)ccc3n2)C1` (stereo not shown) [Example 154, N1-(6-(6-amino-5-(trifluoromethyl)pyridin-3-yl)imidazo[1,2-a]pyridin-2-yl)-N3-methylpyrrolidine-1,3-dicarboxamide], for which the negative-log EC50 (pEC50) with A2780 cells is > 4.60. Moreover, on PI3 K Alpha, the pIC50 was > 6.00.

Regarding `CC(=O)Nc1nc2ccc(-c3cnc(N)c(Br)c3)cn2c1Br` [Example 15, N-[6-(6-Amino-5-bromo-pyridin-3-yl)-3-bromo-imidazo[1,2-a]pyridin-2-yl]-acetamide], in the assay on A2780 cells, the negative-log EC50 (pEC50) is > 5.00. On PI3 K Alpha, the pIC50 is > 6.00.

As to `CC(C)(C)OC(=O)N1CCC1C(=O)Nc1cn2cc(-c3cnc(N)c(OCC(F)(F)F)n3)ccc2n1` (stereo not shown) [Example 174, tert-butyl 2-(6-(5-amino-6-(2,2,2-trifluoroethoxy)pyrazin-2-yl)imidazo[1,2-a]pyridin-2-ylcarbamoyl) azetidine-1-carboxylate], the pEC50 in the assay with A2780 cells was > 4.60. The pIC50 on PI3 K Alpha was > 6.00.

With `CC(=O)Nc1ccc(-c2c(NC(C)=O)nc3ccc(-c4cnc(N)c(C(F)(F)F)c4)cn23)cc1` [Example 162], the pEC50 with A2780 cells was > 4.60. For the same molecule, on PI3 K Alpha, the negative logarithm of the IC50 (pIC50) was > 6.00.

On to `CC(=O)Nc1cn2cc(-c3cnc(N)c(Br)n3)ccc2n1` [Example 164, N-(6-(5-amino-6-bromopyrazin-2-yl)imidazo[1,2-a]pyridin-2-yl)acetamide], for which the negative logarithm of the EC50 (pEC50) in the assay on A2780 cells is > 4.60. Further, at PI3 K Alpha, the pIC50 was > 6.00.

For the molecule `CCN(CC)Cc1cc(-c2ccc3nc(NC(C)=O)cn3n2)cnc1N` [Example 240, N-(6-(6-amino-5-((diethylamino)methyl)pyridin-3-yl)imidazo[1,2-b]pyridazin-2-yl)acetamide], in the assay on A2780 cells, the pEC50 was > 5.00. In addition, at PI3 K Alpha, the negative logarithm of the IC50 (pIC50) was > 6.00.

Take `Nc1ncc(-c2ccc3nc(NC(=O)[C@H]4CCCCN4)cn3c2)cc1C(F)(F)F` [Example 216, (R)-N-(6-(6-amino-5-(trifluoromethyl)pyridin-3-yl)imidazo[1,2-a]pyridin-2-yl)piperidine-2-carboxamide]: in the assay with A2780 cells, the pEC50 is > 5.00. For the same molecule, the negative-log IC50 (pIC50) on PI3 K Alpha was > 6.00.

For the molecule `CC(=O)Nc1cn2nc(-c3cnc(N)c(C(=O)NCCN4CCCC4)c3)ccc2n1` [Example 211, 5-(2-acetamido-imidazo[1,2-b]pyridazin-6-yl)-2-amino-N-(2-(pyrrolidin-1-yl)ethyl) nicotinamide], the negative-log EC50 (pEC50) in the assay on A2780 cells is > 5.00. For the same molecule, the pIC50 on PI3 K Alpha is > 6.00.

As for `CC(=O)Nc1cn2cc(-c3cnc(N)c(/C=N/OC(C)(C)C)c3)ccc2n1` [Example 157, (E)-N-(6-(6-amino-5-((tert-butoxyimino)methyl)pyridin-3-yl)imidazo[1,2-a]pyridin-2-yl)acetamide], the pEC50 in the assay on A2780 cells is > 4.60. For the same molecule, at PI3 K Alpha, the pIC50 is > 6.00.

In the case of `Nc1ncc(-c2ccc3nc(NC(=O)CN4CCCCC4)cn3c2)cc1C(F)(F)F` [Example 198, N-(6-(6-amino-5-(trifluoromethyl)pyridin-3-yl)imidazo[1,2-a]pyridin-2-yl)-2-(piperidin-1-yl)acetamide], the pEC50 in the assay with A2780 cells was > 5.00. Also, at PI3 K Alpha, the pIC50 is > 6.00.

As to `COCCOc1nc(-c2ccc3nc(NC(=O)C4CCN4C(C)=O)cn3c2)cnc1N` (stereo not shown) [Example 249, 1-acetyl-N-(6-(5-amino-6-(2-methoxyethoxy)pyrazin-2-yl)imidazo[1,2-a]pyridin-2-yl)azetidine-2-carboxamide], the negative logarithm of the EC50 (pEC50) in the assay on A2780 cells is > 5.00. On PI3 K Alpha, the pIC50 was > 6.00.

Turning to `N#Cc1cccc(C(=O)Nc2cn3cc(-c4cnc(N)c(C(F)(F)F)c4)ccc3n2)c1` [Example 245, N-(6-(6-amino-5-(trifluoromethyl)pyridin-3-yl)imidazo[1,2-a]pyridin-2-yl)-3-cyanobenzamide], the pEC50 in the assay with A2780 cells was > 5.00. The negative logarithm of the IC50 (pIC50) on PI3 K Alpha was > 6.00.

On to `CN(CC(=O)Nc1cn2nc(-c3cnc(N)c(C(F)(F)F)c3)ccc2n1)C(=O)OC(C)(C)C` [Example 237, tert-butyl 2-(6-(6-amino-5-(trifluoromethyl)pyridin-3-yl)imidazo[1,2-b]pyridazin-2-ylamino)-2-oxoethyl(methyl) carbamate], for which the negative-log EC50 (pEC50) with A2780 cells is > 5.00. In addition, the negative logarithm of the IC50 (pIC50) on PI3 K Alpha is > 6.00.

As to `CCOC(=O)CC(=O)Nc1cn2cc(-c3cnc(N)c(C(F)(F)F)c3)ccc2n1` [Example 255, ethyl 3-(6-(6-amino-5-(trifluoromethyl)pyridin-3-yl)imidazo[1,2-a]pyridin-2-ylamino)-3-oxopropanoate], the negative-log EC50 (pEC50) in the assay on A2780 cells was > 5.00. Further, the negative logarithm of the IC50 (pIC50) at PI3 K Alpha was > 6.00.

As for `Nc1ncc(-c2ccc3nc(NC(=O)COC4CCNCC4)cn3c2)cc1C(F)(F)F` [Example 200, N-(6-(6-amino-5-(trifluoromethyl)pyridin-3-yl)imidazo[1,2-a]pyridin-2-yl)-2-(piperidin-4-yloxy)acetamide], in the assay with A2780 cells, the pEC50 was > 5.00. Moreover, the pIC50 at PI3 K Alpha was > 6.00.

On to `CC(C)(C)OC(=O)N1CC[C@H]1C(=O)Nc1cn2cc(-c3cnc(N)c(C(F)(F)F)c3)ccc2n1` [Example 169, (S)-tert-butyl 2-(6-(6-amino-5-(trifluoromethyl)pyridin-3-yl)imidazo[1,2-a]pyridin-2-ylcarbamoyl) azetidine-1-carboxylate], for which the pEC50 with A2780 cells was > 4.60. In addition, the pIC50 on PI3 K Alpha was > 6.00.

On to `CCN(CC)CCOc1cc(-c2ccc3nc(NC(C)=O)cn3c2)cnc1N` [Example 42, N-(6-(6-amino-5-(2-(diethylamino)ethoxy)pyridin-3-yl)imidazo[1,2-a]pyridin-2-yl)acetamide], for which the pEC50 with A2780 cells is > 4.60. At PI3 K Alpha, the pIC50 is > 5.00.

Turning to `CCN1CC[C@@H](OCC(=O)Nc2cn3cc(-c4cnc(N)c(C(F)(F)F)c4)ccc3n2)C1` [Example 227, (R)-N-(6-(6-amino-5-(trifluoromethyl)pyridin-3-yl)imidazo[1,2-a]pyridin-2-yl)-2-(1-ethylpyrrolidn-3-yloxy)acetamide], in the assay on A2780 cells, the pEC50 was > 5.00. Further, the negative-log IC50 (pIC50) on PI3 K Alpha is > 6.00.

With `COC[C@@H]1CCCN1C(=O)Nc1cn2cc(-c3cnc(N)c(C(F)(F)F)c3)ccc2n1` [Example 165, (S)-N-(6-(6-amino-5-(trifluoromethyl)pyridin-3-yl)imidazo[1,2-a]pyridin-2-yl)-2-(methoxymethyl) pyrrolidine-1-carboxamide], the pEC50 with A2780 cells was > 4.60. Also, the pIC50 at PI3 K Alpha is > 6.00.

In the case of `CC(=O)Nc1cn2cc(-c3ccc(N)nc3F)ccc2n1` [Example 210, N-(6-(6-amino-2-fluoropyridin-3-yl)imidazo[1,2-a]pyridin-2-yl)acetamide], the negative logarithm of the EC50 (pEC50) in the assay with A2780 cells was > 5.00. Also, the pIC50 on PI3 K Alpha was > 6.00.

On to `NCCCC(=O)Nc1cn2nc(-c3cnc(N)c(C(F)(F)F)c3)ccc2n1` [Example 137, 4-amino-N-(6-(6-amino-5-(trifluoromethyl)pyridin-3-yl)imidazo[1,2-b]pyridazin-2-yl)butanamide], for which the pEC50 in the assay on A2780 cells was > 4.60. For the same molecule, the negative-log IC50 (pIC50) at PI3 K Alpha is > 6.00.

`CC(=O)Nc1cn2nc(-c3cnc(N)c(N4CCOCC4)n3)ccc2n1` [Example 176, N-(6-(5-amino-6-morpholino-pyrazin-2-yl)imidazo[1,2-b]pyridazin-2-yl)acetamide]: in the assay on A2780 cells, the negative logarithm of the EC50 (pEC50) is > 4.60. On PI3 K Alpha, the pIC50 is > 6.00.

`CC(=O)Nc1cn2cc(-c3cnc(N)c(N4CCOCC4)n3)ccc2n1` [Example 201, N-(6-(5-amino-6-morpholino-pyrazin-2-yl)imidazo[1,2-a]pyridin-2-yl)acetamide]: the pEC50 with A2780 cells is > 5.00. The negative logarithm of the IC50 (pIC50) at PI3 K Alpha was > 6.00.
